The text below walks through data of patent US11993599B2, “Therapeutic compounds” (Genentech, Inc., priority 2021, dated 2024).

Some results are limits rather than exact numbers.

One assay addresses T1, BRG1 (Homo sapiens, UniProt P51532).
T1 construct: either BRM primary antibody (Cell signaling Cat #11966) or BRG primary antibody (Abcam, ab 110641); endogenous in cells; host or cells: SW1573
Put plainly: Immunofluorescence assay for BRG1 degradation in SW1573 cells. It is filed as cell-based. Particulars: 20 hours incubation; for DC50: immunofluorescence mean nuclear signal, read-out: BRG1 IF Degradation IC50; for Dmax: SW1573, 20 h, normalized to a known degrader control, read-out: BRG1 IF Degradation Sinf (%). In a few lines:
(§1)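 Imaging-based readout in SW1573: 20 h dosing, formaldehyde fixation, antibody staining for either remodeler, nuclear intensity per cell quantified. Values normalized to control degrader; floating-maximum fit.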

A further assay has as its target BRM (Homo sapiens, UniProt P51531). In words: Immunofluorescence assay for BRM degradation in SW1573 cells. It is filed as cell-based. Also on record: treated overnight at 4° C. with either BRM primary antibody (Cell signaling Cat #11966) or BRG primary antibody; endogenous in cells; host or cells: SW1573. Particulars: 20 hours incubation; for DC50: immunofluorescence mean nuclear signal, read-out: BRM IF Degradation IC50; for BRM IF Degradation Sinf (%): normalized to a known degrader control. In a few lines: as §1

T1 sequence (P51532 whole entry): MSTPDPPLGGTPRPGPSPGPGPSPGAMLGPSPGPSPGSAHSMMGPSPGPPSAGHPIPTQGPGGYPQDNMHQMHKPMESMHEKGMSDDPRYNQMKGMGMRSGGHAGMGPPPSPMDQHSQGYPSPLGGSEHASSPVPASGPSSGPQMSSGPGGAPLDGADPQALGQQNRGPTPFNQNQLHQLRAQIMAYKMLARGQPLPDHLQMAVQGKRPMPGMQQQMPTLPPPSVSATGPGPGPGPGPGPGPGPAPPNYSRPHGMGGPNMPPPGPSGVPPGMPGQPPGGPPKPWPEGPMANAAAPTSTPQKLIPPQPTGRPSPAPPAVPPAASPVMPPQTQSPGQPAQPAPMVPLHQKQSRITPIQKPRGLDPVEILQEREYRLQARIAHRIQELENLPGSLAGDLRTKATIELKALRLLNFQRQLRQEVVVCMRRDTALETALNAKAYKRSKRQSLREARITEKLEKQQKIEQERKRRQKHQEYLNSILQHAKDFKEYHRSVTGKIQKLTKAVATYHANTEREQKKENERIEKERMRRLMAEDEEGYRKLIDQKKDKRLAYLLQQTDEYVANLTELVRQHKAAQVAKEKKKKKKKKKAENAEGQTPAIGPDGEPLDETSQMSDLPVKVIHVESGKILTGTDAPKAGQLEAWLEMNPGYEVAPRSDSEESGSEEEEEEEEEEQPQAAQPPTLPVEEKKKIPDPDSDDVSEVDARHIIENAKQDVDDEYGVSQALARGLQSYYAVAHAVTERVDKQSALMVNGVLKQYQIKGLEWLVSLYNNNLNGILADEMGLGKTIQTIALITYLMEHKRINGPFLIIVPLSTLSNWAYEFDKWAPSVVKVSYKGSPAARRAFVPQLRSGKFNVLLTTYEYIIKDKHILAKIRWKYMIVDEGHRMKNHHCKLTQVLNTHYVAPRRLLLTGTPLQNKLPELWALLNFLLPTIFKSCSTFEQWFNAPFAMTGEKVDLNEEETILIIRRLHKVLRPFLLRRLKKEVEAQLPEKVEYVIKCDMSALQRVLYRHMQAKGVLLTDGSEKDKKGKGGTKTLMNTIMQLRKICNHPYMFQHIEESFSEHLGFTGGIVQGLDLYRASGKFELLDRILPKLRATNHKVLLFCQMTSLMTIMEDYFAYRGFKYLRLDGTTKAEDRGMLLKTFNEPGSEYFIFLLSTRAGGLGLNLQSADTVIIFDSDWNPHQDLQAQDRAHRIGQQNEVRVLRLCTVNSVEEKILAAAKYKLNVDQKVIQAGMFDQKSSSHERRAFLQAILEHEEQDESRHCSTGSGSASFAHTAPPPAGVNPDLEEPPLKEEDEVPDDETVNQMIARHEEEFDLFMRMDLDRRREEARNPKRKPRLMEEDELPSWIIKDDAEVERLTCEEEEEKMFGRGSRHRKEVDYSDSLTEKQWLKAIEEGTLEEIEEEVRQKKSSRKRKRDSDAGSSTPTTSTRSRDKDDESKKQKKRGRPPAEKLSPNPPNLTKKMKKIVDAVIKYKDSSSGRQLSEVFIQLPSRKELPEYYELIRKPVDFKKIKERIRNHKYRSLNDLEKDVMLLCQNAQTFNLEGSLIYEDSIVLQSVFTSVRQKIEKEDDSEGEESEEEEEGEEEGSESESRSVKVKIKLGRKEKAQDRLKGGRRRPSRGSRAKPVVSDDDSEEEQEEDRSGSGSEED
BRM, sequence (P51531 whole entry): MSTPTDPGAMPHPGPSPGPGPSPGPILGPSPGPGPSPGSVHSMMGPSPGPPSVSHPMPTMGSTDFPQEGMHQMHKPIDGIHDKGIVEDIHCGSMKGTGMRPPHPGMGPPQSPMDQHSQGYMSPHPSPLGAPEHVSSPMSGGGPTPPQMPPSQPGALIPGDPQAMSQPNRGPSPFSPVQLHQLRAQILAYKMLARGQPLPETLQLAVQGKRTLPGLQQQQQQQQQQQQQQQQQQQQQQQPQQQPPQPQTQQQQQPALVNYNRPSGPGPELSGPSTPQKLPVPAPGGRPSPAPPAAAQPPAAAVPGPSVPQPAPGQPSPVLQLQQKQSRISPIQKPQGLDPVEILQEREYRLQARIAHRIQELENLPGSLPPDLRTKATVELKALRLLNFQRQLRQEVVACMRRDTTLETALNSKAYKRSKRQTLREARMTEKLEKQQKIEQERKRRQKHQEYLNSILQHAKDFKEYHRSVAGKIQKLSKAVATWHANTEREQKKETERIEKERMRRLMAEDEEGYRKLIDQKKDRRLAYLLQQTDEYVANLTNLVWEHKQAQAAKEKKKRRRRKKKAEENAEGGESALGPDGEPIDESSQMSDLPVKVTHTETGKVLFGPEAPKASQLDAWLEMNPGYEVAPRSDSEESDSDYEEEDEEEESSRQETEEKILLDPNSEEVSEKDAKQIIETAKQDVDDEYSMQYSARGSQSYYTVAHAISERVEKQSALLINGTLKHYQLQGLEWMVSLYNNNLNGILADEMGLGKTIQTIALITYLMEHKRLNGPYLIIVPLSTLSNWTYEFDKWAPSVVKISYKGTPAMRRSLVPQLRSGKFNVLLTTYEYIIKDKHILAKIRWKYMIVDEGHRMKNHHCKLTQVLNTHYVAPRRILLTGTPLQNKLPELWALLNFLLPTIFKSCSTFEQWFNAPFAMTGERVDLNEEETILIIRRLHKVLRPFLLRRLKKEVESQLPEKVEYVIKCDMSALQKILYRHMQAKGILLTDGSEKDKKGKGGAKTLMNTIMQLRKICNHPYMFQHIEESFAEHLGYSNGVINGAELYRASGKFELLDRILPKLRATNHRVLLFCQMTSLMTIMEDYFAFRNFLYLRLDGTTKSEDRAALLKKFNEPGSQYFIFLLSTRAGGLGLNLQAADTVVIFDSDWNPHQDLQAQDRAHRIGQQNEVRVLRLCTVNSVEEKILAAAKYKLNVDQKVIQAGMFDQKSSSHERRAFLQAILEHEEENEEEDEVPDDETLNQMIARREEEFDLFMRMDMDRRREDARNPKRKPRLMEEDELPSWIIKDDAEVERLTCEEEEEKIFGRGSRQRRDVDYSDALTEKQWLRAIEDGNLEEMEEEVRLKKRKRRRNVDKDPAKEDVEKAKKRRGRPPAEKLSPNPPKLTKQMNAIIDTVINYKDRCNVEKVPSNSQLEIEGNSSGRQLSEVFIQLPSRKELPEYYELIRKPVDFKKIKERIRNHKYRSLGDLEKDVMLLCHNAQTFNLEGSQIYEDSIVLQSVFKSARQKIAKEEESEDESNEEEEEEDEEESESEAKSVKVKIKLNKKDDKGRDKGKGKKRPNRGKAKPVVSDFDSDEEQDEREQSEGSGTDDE

As to `CC1(CO)CCCN(CC#Cc2cc(N3C4CCC3CN(c3cc(-c5ccccc5O)nnc3N)C4)ccn2)CC1` (stereo not drawn) [Compound 197, 2-[6-amino-5-[8-[2-[3-[4-(hydroxymethyl)-4-methyl-azepan-1-yl]prop-1-ynyl]-4-pyridyl]-3,8-diazabicyclo[3.2.1]octan-3-yl]pyridazin-3-yl]phenol], on BRG1, the DC50 was below 10 nM and the Dmax lay within 30 to 70%. On BRM, the DC50 is below 10 nM and the “BRM IF Degradation Sinf (%)” value is on record as “F (F indicates −71%-−120%)”.
As for `Nc1nnc(-c2ccccc2O)cc1N1CC2CCC(C1)N2c1ccnc(C#CCN2CCCC(F)(F)C(F)C2)c1` (stereo not drawn) [Compound 199, 2-[6-amino-5-[8-[2-[3-(3,4,4-trifluoroazepan-1-yl)prop-1-ynyl]-4-pyridyl]-3,8-diazabicyclo[3.2.1]octan-3-yl]pyridazin-3-yl]phenol], at BRG1, the DC50 is 10 to 100 nM and the Dmax was 30 to 70%. Further, at BRM, the DC50 is below 10 nM and the “BRM IF Degradation Sinf (%)” value is listed as “F (F indicates −71%-−120%)”.
For `CC1CCCN(CC#Cc2cc(N3C4CCC3CN(c3cc(-c5ccccc5O)nnc3N)C4)ccn2)CC1` (stereo not drawn) [Compound 200, 2-[6-amino-5-[8-[2-[3-(4-methylazepan-1-yl)prop-1-ynyl]-4-pyridyl]-3,8-diazabicyclo[3.2.1]octan-3-yl]pyridazin-3-yl]phenol], at BRG1, the DC50 is below 10 nM and the Dmax was in the range of 71 to 120%. At BRM, the DC50 was below 10 nM and the “BRM IF Degradation Sinf (%)” value is “F (F indicates −71%-−120%)”.
Take `CC1CCCCCN1CC#Cc1cc(N2C3CCC2CN(c2cc(-c4ccccc4O)nnc2N)C3)ccn1` (stereo not drawn) [Compound 201, 2-[6-amino-5-[8-[2-[3-(2-methylazepan-1-yl)prop-1-ynyl]-4-pyridyl]-3,8-diazabicyclo[3.2.1]octan-3-yl]pyridazin-3-yl]phenol]: at BRG1, the DC50 was below 10 nM and the Dmax was 30 to 70%. At BRM, the DC50 is below 10 nM and the “BRM IF Degradation Sinf (%)” value is given as “F (F indicates −71%-−120%)”.
As to `Nc1nnc(-c2ccccc2O)cc1N1CC2CCC(C1)N2c1ccnc(C#CCN2CCc3ccccc3CC2)c1` [Compound 202, 2-[6-amino-5-[8-[2-[3-(1,2,4,5-tetrahydro-3-benzazepin-3-yl)prop-1-ynyl]-4-pyridyl]-3,8-diazabicyclo[3.2.1]octan-3-yl]pyridazin-3-yl]phenol], on BRG1, the DC50 lay within 10 to 100 nM and the Dmax lay within 30 to 70%. In addition, at BRM, the DC50 lay within 10 to 100 nM and the “BRM IF Degradation Sinf (%)” value is given as “E (E indicates −30%-−70%)”.
`Nc1nnc(-c2ccccc2O)cc1N1CC2CCC(C1)N2c1ccnc(C#CCN2CCc3nccn3CC2)c1` [Compound 203, 2-[6-amino-5-[8-[2-[3-(5,6,8,9-tetrahydroimidazo[l,2-d][1,4]diazepin-7-yl)prop-1-ynyl]-4-pyridyl]-3,8-diazabicyclo[3.2.1]octan-3-yl]pyridazin-3-yl]phenol]: the DC50 at BRG1 is above 100 nM. In addition, on BRM, the DC50 was in the range of 10 to 100 nM and the “BRM IF Degradation Sinf (%)” value is “E (E indicates −30%-−70%)”.
On to `CC1(C)CCCN(CC#Cc2cc(N3C4CCC3CN(c3cc(-c5ccccc5O)nnc3N)C4)ccn2)CC1` [Compound 205, 2-[6-amino-5-[8-[2-[3-(4,4-dimethylazepan-1-yl)prop-1-ynyl]-4-pyridyl]-3,8-diazabicyclo[3.2.1]octan-3-yl]pyridazin-3-yl]phenol], for which, on BRG1, the DC50 was below 10 nM and the Dmax lay within 30 to 70%. Besides, at BRM, the DC50 is below 10 nM and the “BRM IF Degradation Sinf (%)” value is “F (F indicates −71%-−120%)”.
`N#CCC1CCN(CC#Cc2cc(N3C4CCC3CN(c3cc(-c5ccccc5O)nnc3N)C4)ccn2)CCC1(F)F` (stereo not drawn) [Compound 206, 2-[1-[3-[4-[3-[3-amino-6-(2-hydroxyphenyl)pyridazin-4-yl]-3,8-diazabicyclo[3.2.1]octan-8-yl]-2-pyridyl]prop-2-ynyl]-5,5-difluoro-azepan-4-yl]acetonitrile]: the DC50 on BRG1 was above 100 nM. For the same molecule, on BRM, the DC50 lay within 10 to 100 nM and the “BRM IF Degradation Sinf (%)” value is recorded as “E (E indicates −30%-−70%)”.
Consider `COCC1(O)CCCN(CC#Cc2cc(N3C4CCC3CN(c3cc(-c5ccccc5O)nnc3N)C4)ccn2)CC1` (stereo not drawn) [Compound 207, 1-[3-[4-[3-[3-amino-6-(2-hydroxyphenyl)pyridazin-4-yl]-3,8-diazabicyclo[3.2.1]octan-8-yl]-2-pyridyl]prop-2-ynyl]-4-(methoxymethyl)azepan-4-ol], for which, at BRG1, the DC50 is above 100 nM and the Dmax was in the range of 71 to 120%. On BRM, the DC50 lay in the range of 10 to 100 nM and the “BRM IF Degradation Sinf (%)” value is recorded as “E (E indicates −30%-−70%)”.
As to `Nc1nnc(-c2ccccc2O)cc1N1CC2CCC(C1)N2c1ccnc(C#CCN2CCCC3(CC2)CC3(F)F)c1` (stereo not drawn) [Compound 208, 2-[6-amino-5-[8-[2-[3-(2,2-difluoro-7-azaspiro[2.6]nonan-7-yl)prop-1-ynyl]-4-pyridyl]-3,8-diazabicyclo[3.2.1]octan-3-yl]pyridazin-3-yl]phenol], on BRG1, the DC50 is below 10 nM and the Dmax was 30 to 70%. Besides, at BRM, the DC50 was below 10 nM and the “BRM IF Degradation Sinf (%)” value was “E (E indicates −30%-−70%)”.
Consider `Nc1nnc(-c2ccccc2O)cc1N1CC2CCC(C1)N2c1ccnc(C#CCN2CCCC(C(F)(F)F)CC2)c1` (stereo not drawn) [Compound 209, 2-[6-amino-5-[8-[2-[3-[4-(trifluoromethyl)azepan-1-yl]prop-1-ynyl]-4-pyridyl]-3,8-diazabicyclo[3.2.1]octan-3-yl]pyridazin-3-yl]phenol], for which, on BRG1, the DC50 is below 10 nM and the Dmax was in the range of 30 to 70%. Further, on BRM, the DC50 was below 10 nM and the “BRM IF Degradation Sinf (%)” value is given as “F (F indicates −71%-−120%)”.
In the case of `CC1(C)CC(O)C(O)CN(CC#Cc2cc(N3C4CCC3CN(c3cc(-c5ccccc5O)nnc3N)C4)ccn2)C1` (stereo not drawn) [Compound 210, 1-[3-[4-[3-[3-amino-6-(2-hydroxyphenyl)pyridazin-4-yl]-3,8-diazabicyclo[3.2.1]octan-8-yl]-2-pyridyl]prop-2-ynyl]-6,6-dimethyl-azepane-3,4-diol], the DC50 at BRG1 is above 100 nM. Moreover, at BRM, the DC50 is above 100 nM and the “BRM IF Degradation Sinf (%)” value is listed as “E (E indicates −30%-−70%)”.
Take `CC1CN(CC#Cc2cc(N3C4CCC3CN(c3cc(-c5ccccc5O)nnc3N)C4)ccn2)CCC(F)(F)C1` (stereo not drawn) [Compound 212, 2-[6-amino-5-[8-[2-[3-(5,5-difluoro-3-methyl-azepan-1-yl)prop-1-ynyl]-4-pyridyl]-3,8-diazabicyclo[3.2.1]octan-3-yl]pyridazin-3-yl]phenol]: on BRG1, the DC50 is below 10 nM and the Dmax fell in the range of 71 to 120%. Besides, at BRM, the DC50 was below 10 nM and the “BRM IF Degradation Sinf (%)” value was “F (F indicates −71%-−120%)”.
`Nc1nnc(-c2ccccc2O)cc1N1CC2CCC(C1)N2c1ccnc(C#CCN2CCCCC(CO)C2)c1` (stereo not drawn) [Compound 214, 2-[6-amino-5-[8-[2-[3-[3-(hydroxymethyl)azepan-1-yl]prop-1-ynyl]-4-pyridyl]-3,8-diazabicyclo[3.2.1]octan-3-yl]pyridazin-3-yl]phenol]: on BRG1, the DC50 is below 10 nM and the Dmax lay within 30 to 70%. Besides, on BRM, the DC50 is below 10 nM and the “BRM IF Degradation Sinf (%)” value is recorded as “F (F indicates −71%-−120%)”.
For `Nc1nnc(-c2ccccc2O)cc1N1CC2CCC(C1)N2c1ccnc(C#CCN2CCCC(CO)CC2)c1` (stereo not drawn) [Compound 215, 2-[6-amino-5-[8-[2-[3-[4-(hydroxymethyl)azepan-1-yl]prop-1-ynyl]-4-pyridyl]-3,8-diazabicyclo[3.2.1]octan-3-yl]pyridazin-3-yl]phenol], on BRG1, the DC50 fell in the range of 10 to 100 nM and the Dmax lay within 71 to 120%. In addition, at BRM, the DC50 is below 10 nM and the “BRM IF Degradation Sinf (%)” value is recorded as “F (F indicates −71%-−120%)”.
As to `Nc1nnc(-c2ccccc2O)cc1N1CC2CCC(C1)N2c1ccnc(C#CCN2CCCCCC2CO)c1` (stereo not drawn) [Compound 216, 2-[6-amino-5-[8-[2-[3-[2-(hydroxymethyl)azepan-1-yl]prop-1-ynyl]-4-pyridyl]-3,8-diazabicyclo[3.2.1]octan-3-yl]pyridazin-3-yl]phenol], at BRG1, the DC50 is below 10 nM and the Dmax lay in the range of 71 to 120%. At BRM, the DC50 is below 10 nM and the “BRM IF Degradation Sinf (%)” value is listed as “F (F indicates −71%-−120%)”.
Regarding `Nc1nnc(-c2ccccc2O)cc1N1CC2CCC(C1)N2c1ccnc(C#CCN2CC3CC(CO)CC32)c1` (stereo not drawn) [Compound 217, 2-[6-amino-5-[8-[2-[3-[3-(hydroxymethyl)-6-azabicyclo[3.2.0]heptan-6-yl]prop-1-ynyl]-4-pyridyl]-3,8-diazabicyclo[3.2.1]octan-3-yl]pyridazin-3-yl]phenol], at BRG1, the DC50 was 10 to 100 nM and the Dmax was 30 to 70%. Besides, on BRM, the DC50 is 10 to 100 nM and the “BRM IF Degradation Sinf (%)” value is on record as “E (E indicates −30%-−70%)”.
As for `Nc1nnc(-c2ccccc2O)cc1N1CC2CCC(C1)N2c1ccnc(C#CCN2CCC3CCC2CC3)c1` [Compound 218, 2-[6-amino-5-[8-[2-[3-(2-azabicyclo[3.2.2]nonan-2-yl)prop-1-ynyl]-4-pyridyl]-3,8-diazabicyclo[3.2.1]octan-3-yl]pyridazin-3-yl]henol], on BRG1, the DC50 was below 10 nM and the Dmax was in the range of 30 to 70%. Also, at BRM, the DC50 is below 10 nM and the “BRM IF Degradation Sinf (%)” value is given as “F (F indicates −71%-−120%)”.
